# Results: patent publication US12384797B2, “Thioeno[3,2-b] pyridin-7-amine compounds for treating familial dysautonomia” (PTC THERAPEUTICS, INC., priority 2019, dated 2025)
# Test system: Elongator complex protein 1 (ELP1, also referred to as IKBKAP)
# Assay: IKBKAP-HTRF assay (IKBKAP protein in lysates of FD patient-derived fibroblasts)
# Type: cell-based, human
# Details: 48 hours incubation, 7-point concentration curve
# Summary of the method: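 Sandwich HTRF with two labelled anti-IKAP antibodies (overnight, 4 °C) measured IKBKAP in lysates of FD patient fibroblasts. Cells were exposed to compound for 48 h at 37 °C (7-point curve, 3.16-fold steps, triplicates). EC2x is the dose doubling IKBKAP versus DMSO control; MFI is sample ΔF divided by vehicle ΔF.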
Compound,EC2x for IKBKAP protein expression (concentration producing two times the amount of IKBKAP protein vs DMSO vehicle control),MFI (maximum fold increase in IKBKAP protein abundance relative to the vehicle control)
"N[C@@H](CCO)Cc1sc2c(NCc3nccs3)cc(Cl)nc2c1Cl [Compound 48, (3S)-3-amino-4-(3,5-dichloro-7-{[(1,3-thiazol-2-yl)methyl]amino}thieno[3,2-b]pyridin-2-yl)butan-1-ol]",***** (≤0.005 μM is indicated by five stars (*****)),***** (>4.9 is indicated by five stars (*****))
"N#Cc1cc(NCc2cccs2)c2scc(C#N)c2n1 [Compound 12, 7-{[(thiophen-2-yl)methyl]amino}thieno[3,2-b]pyridine-3,5-dicarbonitrile]",*** (between >0.02 μM and ≤0.5 μM is indicated by three stars (***)),** (between >1.9 and ≤2.9 is indicated by two stars (**))
"Cc1c([C@H](N)C(C)C)sc2c(NCc3ccco3)cc(Cl)nc12 [Compound 31, 2-[(1R)-1-amino-2-methylpropyl]-5-chloro-N-[(furan-2-yl)methyl]-3-methylthieno[3,2-b]pyridin-7-amine]",* (An EC2x>1 μM is indicated by one star (*)),* (An MFI≤1.9 is indicated by one star (*))
"COC[C@H](N)Cc1sc2c(NCc3ccco3)cc(Cl)nc2c1C [Compound 45, 2-[(2R)-2-amino-3-methoxypropyl]-5-chloro-N-[(furan-2-yl)methyl]-3-methylthieno[3,2-b]pyridin-7-amine]",***** (≤0.005 μM is indicated by five stars (*****)),***** (>4.9 is indicated by five stars (*****))
"CC[C@H](N)Cc1sc2c(NCc3nccs3)cc(Cl)nc2c1Cl [Compound 82, 2-[(2S)-2-aminobutyl]-3,5-dichloro-N-[(1,3-thiazol-2-yl)methyl]thieno[3,2-b]pyridin-7-amine]",***** (≤0.005 μM is indicated by five stars (*****)),***** (>4.9 is indicated by five stars (*****))
"CS(=O)(=O)C[C@H](N)Cc1sc2c(NCc3ccco3)cc(Cl)nc2c1Cl [Compound 113, 2-[(2R)-2-amino-3-(methanesulfonyl)propyl]-3,5-dichloro-N-[(furan-2-yl)methyl]thieno[3,2-b]pyridin-7-amine]",**** (between >0.005 μM and ≤0.02 μM is indicated by four stars (****)),***** (>4.9 is indicated by five stars (*****))
"CN[C@@H](C)Cc1sc2c(NCc3ccco3)cc(Cl)nc2c1C [Compound 42, 5-chloro-N-[(furan-2-yl)methyl]-3-methyl-2-[(2S)-2-(methylamino)propyl]thieno[3,2-b]pyridin-7-amine]",**** (between >0.005 μM and ≤0.02 μM is indicated by four stars (****)),***** (>4.9 is indicated by five stars (*****))
"N[C@@H](CF)Cc1sc2c(NCc3cccs3)cc(Cl)nc2c1Br [Compound 76, 2-[(2R)-2-amino-3-fluoropropyl]-3-bromo-5-chloro-N-[(thiophen-2-yl)methyl]thieno[3,2-b]pyridin-7-amine]",***** (≤0.005 μM is indicated by five stars (*****)),***** (>4.9 is indicated by five stars (*****))
"Cc1c(C[C@@H](N)CS(C)(=O)=O)sc2c(NCc3ccco3)cc(Cl)nc12 [Compound 108, 2-[(2R)-2-amino-3-(methanesulfonyl)propyl]-5-chloro-N-[(furan-2-yl)methyl]-3-methylthieno[3,2-b]pyridin-7-amine]",**** (between >0.005 μM and ≤0.02 μM is indicated by four stars (****)),***** (>4.9 is indicated by five stars (*****))
"FC(F)Oc1csc2c(NCc3cccs3)cc(Cl)nc12 [Compound 149, 5-chloro-3-(difluoromethoxy)-N-[(thiophen-2-yl)methyl]thieno[3,2-b]pyridin-7-amine]",*** (between >0.02 μM and ≤0.5 μM is indicated by three stars (***)),**** (between >3.9 and ≤4.9 is indicated by four stars (****))
"COC(=O)[C@H](N)Cc1sc2c(NCc3ccco3)cc(Cl)nc2c1C [Compound 131, methyl 3-(5-chloro-7-{[(furan-2-yl)methyl]amino}-3-methylthieno[3,2-b]pyridin-2-yl)-D-alaninate]",**** (between >0.005 μM and ≤0.02 μM is indicated by four stars (****)),**** (between >3.9 and ≤4.9 is indicated by four stars (****))
"Clc1cc(NCc2ccco2)c2scc(Br)c2n1 [Compound 7, 3-bromo-5-chloro-N-[(furan-2-yl)methyl]thieno[3,2-b]pyridin-7-amine]",*** (between >0.02 μM and ≤0.5 μM is indicated by three stars (***)),***** (>4.9 is indicated by five stars (*****))
"Cc1csc2c(NCc3ccco3)cc(Cl)nc12 [Compound 2, 5-chloro-N-[(furan-2-yl)methyl]-3-methylthieno[3,2-b]pyridin-7-amine]",*** (between >0.02 μM and ≤0.5 μM is indicated by three stars (***)),***** (>4.9 is indicated by five stars (*****))
"N[C@@H](CF)Cc1sc2c(NCc3ccco3)cc(Cl)nc2c1Br [Compound 46, 2-[(2R)-2-amino-3-fluoropropyl]-3-bromo-5-chloro-N-[(furan-2-yl)methyl]thieno[3,2-b]pyridin-7-amine]",***** (≤0.005 μM is indicated by five stars (*****)),***** (>4.9 is indicated by five stars (*****))
"C[C@H](N)Cc1sc2c(NCc3cccs3)cc(Cl)nc2c1C#N [Compound 110, 2-[(2S)-2-aminopropyl]-5-chloro-7-{[(thiophen-2-yl)methyl]amino}thieno[3,2-b]pyridine-3-carbonitrile]",***** (≤0.005 μM is indicated by five stars (*****)),**** (between >3.9 and ≤4.9 is indicated by four stars (****))
"Cc1c(C[C@@H](N)C(=O)Nc2ccccn2)sc2c(NCc3ccco3)cc(Cl)nc12 [Compound 134, 3-(5-chloro-7-{[(furan-2-yl)methyl]amino}-3-methylthieno[3,2-b]pyridin-2-yl)-N-pyridin-2-yl-D-alaninamide]",**** (between >0.005 μM and ≤0.02 μM is indicated by four stars (****)),***** (>4.9 is indicated by five stars (*****))
"Cc1c(C(C)CN)sc2c(NCc3ccco3)cc(Cl)nc12 (centres unmarked) [Compound 148, 2-(1-aminopropan-2-yl)-5-chloro-N-[(furan-2-yl)methyl]-3-methylthieno[3,2-b]pyridin-7-amine]",***** (≤0.005 μM is indicated by five stars (*****)),**** (between >3.9 and ≤4.9 is indicated by four stars (****))
"2-[(2S)-2-aminobutyl]-5-chloro-3-cyclopropyl-N-[(1,3-thiazol-2-yl)methyl]thieno[3,2-b]pyridin-7-amine [Compound 86]",*** (between >0.02 μM and ≤0.5 μM is indicated by three stars (***)),**** (between >3.9 and ≤4.9 is indicated by four stars (****))
"Cc1c(C[C@@H](N)CC(C)C)sc2c(NCc3cccs3)cc(Cl)nc12 [Compound 61, 2-[(2S)-2-amino-4-methylpentyl]-5-chloro-3-methyl-N-[(thiophen-2-yl)methyl]thieno[3,2-b]pyridin-7-amine]",***** (≤0.005 μM is indicated by five stars (*****)),***** (>4.9 is indicated by five stars (*****))
"Cc1c(C(C)O)sc2c(NCc3ccco3)cc(Cl)nc12 (centres unmarked) [Compound 3, 1-(5-chloro-7-{[(furan-2-yl)methyl]amino}-3-methylthieno[3,2-b]pyridin-2-yl)ethan-1-ol]",*** (between >0.02 μM and ≤0.5 μM is indicated by three stars (***)),*** (between >2.9 and ≤3.9 is indicated by three stars (***))
"Cc1c(C[C@@H](N)[C@H](C)F)sc2c(NCc3nccs3)cc(Cl)nc12 [Compound 128, 2-[(2R,3S)-2-amino-3-fluorobutyl]-5-chloro-3-methyl-N-[(1,3-thiazol-2-yl)methyl]thieno[3,2-b]pyridin-7-amine]",***** (≤0.005 μM is indicated by five stars (*****)),***** (>4.9 is indicated by five stars (*****))
"COc1csc2c(NCc3ccco3)cc(Cl)nc12 [Compound 137, 5-chloro-N-[(furan-2-yl)methyl]-3-methoxythieno[3,2-b]pyridin-7-amine]",*** (between >0.02 μM and ≤0.5 μM is indicated by three stars (***)),***** (>4.9 is indicated by five stars (*****))
